Assays:
[1] = biological target: T1, human CB2 (hCB2) receptor (Homo sapiens, UniProt P34972); experiment: Inhibition of forskolin-activated cAMP production upon activation of human CB2 receptor (HTRF); format: cell-based; settings: CHO-K1 cells stably transfected with hCB2; 15 μM forskolin; pEC50=-log(EC50); relative to WIN55212-2
T1 construct: expressed in transfected cells; host or cells: CHO-K1
Method: D. Pharmacological Examples D.1 Inhibition of cAMP in Response to Activation of the Human CB2 Receptors
Functional activity of the test compounds was assessed by measuring their potency to inhibit forskolin-activated cAMP production upon activation of human CB2 (hCB2) receptor through homogenous time resolved fluorescence (HTRF) assays.
CHO-K1 cells stably transfected with hCB2 were grown up to 80-90% confluence in T175 Falcon flasks in DMEM/NUT MIX F-12 culture medium complemented with 2% Solution A (5.10^6 IU/l penicillin G, 5 g/l streptomycin sulphate, 5.5 g/l pyruvate, 14.6 g/l L-glutamine, 1M NaOH) and 10% foetal calf serum. Before the experiments, medium was removed, cells were washed with PBS/EDTA (140 mM NaCl, 1 mM Na2-EDTA, 8 mM Na2HPO4.2H2O, 8.5 mM KH2PO4, 2.7 mM KCl, 21 mM glucose), resuspended in stimulation buffer (HBSS 1×, IBMX 1 mM, Hepes 5 mM, MgCl2 10 mM, BSA 0.1%, pH 7.4). Cells were diluted to a concentration of 10^6 cells/ml for hCB2 experiments. Assays were performed using the cAMP Dynamic HTRF kit (CIS bio international, France) according to the recommendations of the manufacturer.
For CB2, each well of a 384 flat bottom black polystyrene assay plate (Costar) was filled with 10 μl stimulation buffer containing 15 μM forskolin and either test compound (in 3% DMSO), 3% DMSO or 10 μM Win55212-2 (in 3% DMSO). Then, 20 μl of the diluted hCB2-CHO-K1 cells was added (20,000 cells/well). After 30 minutes incubation in dark at room temperature, 10 μl cAMP-XL665 and 10 μl anti-cAMP cryptate (both at a final dilution of 1/100) was added to the cells.
After equilibration of the reaction mixtures for 1 to 24 hours in dark at room temperature, fluorescence was measured at 665 nm and 620 nm using a Discovery microplate fluorescence counter (Perkin Elmer), and the signal ratio of 665 nm/620 nm was calculated. The signal ratios of the test compounds were expressed relative to the signal ratios of the DMSO control (maximal signal ratio, no inhibition of cAMP) and WIN55212-2 for hCB2, respectively (minimal signal ratio, maximal inhibition of cAMP). From the dose response curves generated for each test compound, the dose at which 50% of the maximal inhibition of cAMP level is observed (EC50, expressed in the Table as pEC50=−log (EC50) values) and the level of inhibition reached with 10 μM of the test compound compared to WIN55212-2 (for hCB2) was calculated.

T1 sequence (P34972 whole entry): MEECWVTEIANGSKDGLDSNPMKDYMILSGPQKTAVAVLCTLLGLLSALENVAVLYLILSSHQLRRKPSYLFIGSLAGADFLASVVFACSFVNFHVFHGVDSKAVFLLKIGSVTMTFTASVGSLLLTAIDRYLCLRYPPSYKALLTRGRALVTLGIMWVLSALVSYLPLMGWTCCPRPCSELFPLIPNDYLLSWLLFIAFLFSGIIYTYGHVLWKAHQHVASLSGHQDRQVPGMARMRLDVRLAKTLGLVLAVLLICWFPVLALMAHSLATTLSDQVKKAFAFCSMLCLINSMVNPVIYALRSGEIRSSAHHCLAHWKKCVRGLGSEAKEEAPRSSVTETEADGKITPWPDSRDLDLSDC

| SMILES | CB2 pEC50 [1] | melting point [°C] | EC50 [1] [nM] |
| --- | --- | --- | --- |
| CC(C)(C)c1nc2cc(S(=O)(=O)CCCC(F)(F)F)ccc2n1CC1CCN(C=O)CC1 [compound 5] | 8.62 | > 100 |  |
| CCC(=O)N1CCC(Cn2c(C(C)(C)C)nc3cc(S(=O)(=O)CCCC(F)(F)F)ccc32)CC1.Cl [compound 6] | 7.72 | > 100 |  |
| COC(=O)N1CCC(Cn2c(C(C)(C)C)nc3cc(S(=O)(=O)CCCC(F)(F)F)ccc32)CC1.Cl [compound 7] | 7.77 | > 100 |  |
| CC(C)(C)c1nc2cc(S(=O)(=O)CCCC(F)(F)F)ccc2n1CC1CCN(C(=O)C(F)(F)F)CC1.Cl [compound 8] | 7.64 | > 100 |  |
| COCC(=O)N1CCC(Cn2c(C(C)(C)C)nc3cc(S(=O)(=O)CCCC(F)(F)F)ccc32)CC1 [compound 9] | 5.80 | > 100 |  |
| CC(=O)N1CCC(Cn2c(C(C)(C)C)nc3cc(S(=O)(=O)CC4CC4)ccc32)CC1 [compound 24] |  | 150 | 9.33 |
| CC(=O)N1CCC(Cn2c(C(C)(C)C)nc3cc(S(=O)(=O)Cc4ccc(F)cc4)ccc32)CC1 [compound 25] |  | > 100 | 12.3 |
| CC(C)(C)c1nc2cc(S(=O)(=O)CCCO)ccc2n1CC1CCN(C=O)CC1 [compound 26] |  | > 100 | 8.91 |
| COCCS(=O)(=O)c1ccc2c(c1)nc(C(C)(C)C)n2CC1CCN(C=O)CC1 [compound 27] |  | > 100 | 61.7 |
| CCS(=O)(=O)c1ccc2c(c1)nc(C(C)(C)C)n2CC1CCN(C=O)CC1 [compound 28] |  | 188 to 190 | 23.4 |
| CCS(=O)(=O)c1ccc2c(c1)nc(C(C)(C)C)n2CC1CCS(=O)(=O)CC1 [compound 29] |  | 194 | 27.5 |
| CC(C)(C)c1nc2cc(S(=O)(=O)CC3CC3)ccc2n1CC1CCS(=O)(=O)CC1 [compound 31] |  | 234 | 8.51 |
| CC(=O)N1CCC(Cn2c(C(C)(C)C)nc3cc(S(=O)(=O)c4ccncc4)ccc32)CC1 [compound 34] |  | 179 | 3.89 |
| CC(C)(C)c1nc2cc(S(=O)(=O)CC3CC3)ccc2n1CC1CCN(C=O)CC1 [compound 36] | 8.66 | 186 |  |
| CC(=O)N1CCC(Cn2c(C(C)(C)C)nc3cc(S(=O)(=O)c4nccs4)ccc32)CC1 [compound 40] |  | 191 | 5.89 |
| CC(=O)N1CCC(Cn2c(C(C)(C)C)nc3cc(S(=O)(=O)CC4CCC4)ccc32)CC1 [compound 43] |  | 155 | 8.71 |
| COc1cccc(S(=O)(=O)c2ccc3c(c2)nc(C(C)(C)C)n3CC2CCN(C(C)=O)CC2)c1OC [compound 108] |  |  | ~13.8 |
| COc1ccccc1S(=O)(=O)c1ccc2c(c1)nc(C(C)(C)C)n2CC1CCN(C(C)=O)CC1 [compound 109] |  |  | ~8.71 |
| CC(=O)N1CCC(Cn2c(C(C)(C)C)nc3cc(S(=O)(=O)c4ccc(N)c(Cl)c4)ccc32)CC1 [compound 110] |  |  | ~10 |
| CC(=O)N1CCC(Cn2c(C(C)(C)C)nc3cc(S(=O)(=O)c4c(F)cccc4F)ccc32)CC1 [compound 111] |  |  | ~16.6 |
| CC(=O)N1CCC(Cn2c(C(C)(C)C)nc3cc(S(=O)(=O)c4cccc(C#N)c4C)ccc32)CC1 [compound 112] |  |  | ~16.6 |
| CC(=O)N1CCC(Cn2c(C(C)(C)C)nc3cc(S(=O)(=O)c4ccccc4C(F)(F)F)ccc32)CC1 [compound 113] |  |  | ~2.51 |
| CC(=O)N1CCC(Cn2c(C(C)(C)C)nc3cc(S(=O)(=O)c4c(F)cc(F)cc4F)ccc32)CC1 [compound 114] |  |  | ~4.17 |
| CC(=O)N1CCC(Cn2c(C(C)(C)C)nc3cc(S(=O)(=O)c4c(C)cccc4C)ccc32)CC1 [compound 115] |  |  | ~8.32 |
| CC(=O)N1CCC(Cn2c(C(C)(C)C)nc3cc(S(=O)(=O)c4cccc(N5CCOCC5)c4)ccc32)CC1 [compound 116] |  |  | ~44.7 |
